Data on one compound can be found in patent US10813944B2, “Cyclodextrins as procoagulants” (STICHTING SANQUIN BLOEDVOORZIENING, priority 2016, dated 2020).

The test system of test [1] is Hemophilia A mice. In words: In vivo vena saphena bleeding model in hemophilia A mice. An excerpt: FIG. 30: Effect of OKL-1111 and OKL-1187 on coagulation in mouse hemophilia A assay.
All animal protocols were approved by the Institutional Animal Care and Use Committee of the University of North Carolina. C57BL6/J mice were purchased from Charles Rivers Laboratories (Willmington, Mass.). Bleeding studies were done essentially as previously described Pastoft et al. (Haemophilia 2012; 18:782-8). Mice were anesthetized with isoflurane throughout all procedures. The hair on the ventral side of both hind limbs was removed. The animals were placed supine on a temperature and ECG monitoring board. The paws were gently restrained by looping soft polyethylene tubing around them and attaching the tubing to the ECG board. The skin on the left and right ventral hind limb was incised which exposes a length of the saphenous neurovascular bundle; the bundle was covered with normal saline to prevent drying. To assess haemostasis, the right saphenous vein was transected by piercing it with a 23-G needle followed by a longitudinal incision made in the distal portion of the vessel. Blood was gently wicked away until haemostasis occurred. The clot was then removed to restart bleeding and the blood was again wicked away until haemostasis occurs again. […] Two parameters were measured: 1) the number of times that haemostasis occurs in a 30 minute period, and 2) the time required for each haemostasis. […]

In test [2] the test system is thrombin generation in pooled normal plasma spiked with anticoagulants. In words: Thrombin generation assay in pooled normal plasma spiked with anticoagulants. It counts as biochemical, human. To be noted: 1 pM TF. The gist of the method:
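Pooled normal plasma spiked with cyclodextrins or OKL-1111 (typically 100 μM) plus anticoagulants at fixed levels (e.g., dabigatran, rivaroxaban 100 ng/ml; apixaban, edoxaban 60 ng/ml). Calibrated Automated Thrombogram triggered by recalcification with 1 pM tissue factor, 4 μM phospholipids and 417 μM Z-Gly-Gly-Arg-AMC; lag time, peak, velocity index and ETP derived.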

The test system of test [3] is normal human plasma pretreated with inhibitory antibodies against factor XI. Nature of the test: Thrombin generation in normal plasma spiked with inhibitory antibodies against factor XI. The class given is biochemical. To be noted: mix of #203 and #175, 75 μg/ml; 1 pM TF. Here is the method:
The Calibrated Automated Thrombogram® assays the generation of thrombin in clotting plasma using a microtiter plate reading fluorometer (Fluoroskan Ascent, ThermoLab systems, Helsinki, Finland) and Thrombinoscope® software (Thrombinoscope BV, Maastricht, The Netherlands). The assay was carried out as described by Hemker et al. (Pathofysiol. IIaemost. Thromb. 2003, 33, 4-15), and the Thrombinoscope® manual. Coagulation was triggered by recalcification in the presence of 1 or 5 pM recombinant human tissue factor (Innovin®, Siemens, Marburg, Germany), 4 μM phospholipids, and 417 μM fluorogenic substrate Z-Gly-Gly-Arg-AMC (Bachem, Bubendorf, Switzerland). Fluorescence was monitored using the Fluoroskan Ascent fluorometer (ThermoLabsystems, Helsinki, Finland), and the lag time, peak thrombin, velocity index and area under the curve (ETP) were calculated using the Thrombinoscope® software (Thrombinoscope BV).
Normal plasma was spiked with inhibitory antibodies against factor VIII (Sanquin, VK34, 14 μg/ml), factor IX (Sanquin, 5F5, 20 μg/ml) or factor XI (Sanquin, mix of #203 and #175, 75 μg/ml). The effect of OKL-1111 was tested in thrombin generation assay using 1 pM tissue factor (TF). This model is representative for hemophilia A, B and C patients that have developed inhibitory antibodies against plasma-derived or recombinant factor VIII or IX or XI they are treated with.

On to `O=C(O)CCCCCSCC1OC2OC3C(CSCCCCCC(=O)O)OC(OC4C(CSCCCCCC(=O)O)OC(OC5C(CSCCCCCC(=O)O)OC(OC6C(CSCCCCCC(=O)O)OC(OC7C(CSCCCCCC(=O)O)OC(OC8C(CSCCCCCC(=O)O)OC(OC9C(CSCCCCCC(=O)O)OC(OC1C(O)C2O)C(O)C9O)C(O)C8O)C(O)C7O)C(O)C6O)C(O)C5O)C(O)C4O)C(O)C3O` (stereo not drawn) [OKL-1111], for which the “hemostasis compared to factor VIII alone” value in test [1] (factor VIII 2.5 IU/kg plus OKL-1111 1 μmol/kg) was “significantly higher”. In test [1] (factor VIII 2.5 IU/kg plus OKL-1111 1 μmol/kg (designed to give 25 μM in plasma)), the “number of clots formed over a 30 minute period” value is reported as 7-9 clots. Further, the “restoring thrombin generation in plasma anticoagulated with unfractionated heparin” value in test [2] (UFH 0.03 U/ml, OKL-1111 100 μM) is “capable of restoring thrombin generation”. For the same compound, in test [2] (apixaban 60 ng/ml, cyclodextrin 100 μM), the “effect on the anticoagulant effect of apixaban” value is recorded as “restoration of thrombin generation to levels far above that of non-anticoagulated plasma”. Also, the “restoring thrombin generation in plasma anticoagulated with bivalirudin” value in test [2] (bivalirudin 10 μg/ml, OKL-1111 100 μM) is listed as “capable of restoring thrombin generation”. In test [2] (dabigatran 100 ng/ml, cyclodextrin 100 μM), the “effect on the anticoagulant effect of dabigatran” value is “restoration of thrombin generation to levels far above that of non-anticoagulated plasma”. In addition, the “effect on the anticoagulant effect of edoxaban” value in test [2] (edoxaban 60 ng/ml, cyclodextrin 100 μM) is “restoration of thrombin generation to levels far above that of non-anticoagulated plasma”. In addition, in test [2] (fondaparinux 2 μg/ml, OKL-1111 100 μM), the “restoring thrombin generation in plasma anticoagulated with pentasaccharide (arixtra)” value is “capable of restoring thrombin generation”. Also, the “restoring thrombin generation in plasma anticoagulated with hirudin” value in test [2] (hirudin 0.5 U/ml, OKL-1111 100 μM) is reported as “capable of restoring thrombin generation”. Moreover, the “restoring thrombin generation in plasma anticoagulated with low molecular weight heparin” value in test [2] (nadroparin 0.4 U/ml, tinzaparin 0.1 U/ml, OKL-1111 100 μM) is “capable of restoring thrombin generation”. In addition, the “effect on the anticoagulant effect of rivaroxaban” value in test [2] (rivaroxaban 100 ng/ml, cyclodextrin 100 μM) is on record as “restoration of thrombin generation to levels far above that of non-anticoagulated plasma”. Further, the “thrombin generation in plasma with inhibitory antibodies against factor XI” value in test [3] was “concentration-dependently stimulated thrombin generation”.
